Source: publication PMC7417534, “Cytochrome P450 inhibition potential and initial genotoxic evaluation of 14-O-[(4,6-diaminopyrimidine-2-yl)thioacetyl] mutilin” (Scientific Reports, 2020)
Like-named read-outs stand apart in the source and are kept apart here.

What was measured:
CYP2D1 = target: T1, CYP2D1 (Rattus norvegicus, UniProt P10633); assay: Cocktail CYP inhibition in rat liver microsomes, CYP2D1 (metoprolol); type: in vitro ADME; settings: cocktail method, read-out: IC50 values, CYP2D1 in RLMs
T1 construct: containing 100 μL RLMs or HLMs; tissue Research Institute for Liver Diseases (Shanghai) Co., Ltd; host or cells: male SD rat liver microsomes
Procedure: (§1) We used the cocktail method to study the inhibition activities of DPTM against CYP enzymes in RLMs and HLMs with slight modification. DPTM (250 μmol) was dissolved in 1.25 mL methanol to a solution and then diluted with methanol and water to 2, 10, 20, 100, 200, 400, 1,000 and 2000 μM, respectively. The obtained serial dilutions (10 μL) were added to the incubation mixtures (200 μL total volume), containing 100 μL RLMs or HLMs (final concentration was 5 μg/μL, respectively), 10 μL glucose-6-phosphate (final concentration was 1 mM), 10 μL glucose-6-phosphate dehydrogenase (final concentration was 0.1 U/L), 20 μL potassium phosphate buffer (final concentration was 0.01 M) and 20 μL MgCl2 (final concentration was 2 mM), to give the final concentrations were 0.1, 0.5, 1, 5 10, 20, 50, and 100 μM, respectively. For the groups that in the absence of DPTM, 10 μL methanol (1%) replaced the DPTM and was added to the incubation mixtures. […] The final concentration of methanol in all the incubation mixtures, including the blank group, was […]. […] The determined metabolic substrates were used for calculating the relative enzyme activity (Erel) by the following formula: Erel (%) = Ci(n)/Ci(0) × 100%, in which Ci(n) was the determined metabolic substrates in the presence of varying concentrations of DPTM and Ci(0) was the determined metabolic substrates in the absence of DPTM. […]

[1] = design: method as in PMID 30813235; settings: rats, intravenous administration; cited from earlier work
CYP2C9 = target: T2, CYP2C9 (Homo sapiens, UniProt P11712); assay: Cocktail CYP inhibition in human liver microsomes, CYP2C9 (tolbutamide); type: in vitro ADME; settings: cocktail method, read-out: IC50 values, CYP2C9 in HLMs
T2 construct: containing 100 μL RLMs or HLMs; tissue Research Institute for Liver Diseases (Shanghai) Co., Ltd; host or cells: pooled human liver microsomes
Procedure: as §1

PPARα mRNA = PPARα mRNA expression in Hep G2 cells (real-time PCR); type: cell-based, human; settings: 2, 4 and 12 h, three doses
Procedure: The logarithmic growth phase Hep G2 cells were seeded into 12-well plastic plates at a density of […]. After incubation at 37 °C under 5% CO2 for 24 h, the media were then replaced with 1 mL of serial dilutions of the DPTM (4.98, 0.16 and 0.08 mM) in fresh media. When cells were incubated for 2, 4 and 12 h at 37 °C under 5% CO2, the RNA was isolated using the Trizol reagent according to the manufacturer’s protocol. Total RNA (5 μL) was transcribed into cDNA by using the PrimeScript RT reagent Kit (Perfect Real Time). The obtained cDNA (5 μL) was added for 45 cycles of PCR amplification to detect the mRNA expression (the primers and sequences used herein were given in Table 3) using the ABI Villa TM7Dx real-time PCR system (Gaithersburg, USA). Glyceraldehyde-3-phosphate dehydrogenase (GAPDH) was used as reference gene. All reactions were performed in a final volume of 20 μL (10 μL of 2 × SYBR Green Real-time PCR Master Mix, 2 μL of cDNA and 2 μL of the primers and 6 μL DEPC water) and executed in triplicate.

CYP2E1 [2] = target: T3, CYP2E1 (Rattus norvegicus, UniProt P05182); assay: Cocktail CYP inhibition in rat liver microsomes, CYP2E1 (chlorzoxazone); type: in vitro ADME; settings: cocktail method, read-out: IC50 values, CYP2E1 in RLMs
T3 construct: containing 100 μL RLMs or HLMs; tissue Research Institute for Liver Diseases (Shanghai) Co., Ltd; host or cells: male SD rat liver microsomes
Procedure: as §1

CYP3A = assay: Cocktail CYP inhibition in rat liver microsomes, CYP3A (dapsone); type: in vitro ADME; settings: probe dapsone (55 μM), cocktail method, read-out: IC50 values, CYP3A in RLMs
Procedure: as §1

S. typhimurium TA100 = settings: − S9
Source text: (§2) S. typhimurium strains TA97, TA98, TA100, TA102 and TA1535 were stored and maintained as provided in the standard protocol. Each of the strains was checked for their genetic integrity prior to the experiment, and tested for biotin dependence, histidine dependence, biotin and histidine dependence, rfa marker (crystal violet) and presence of the plasmid pKM101 (ampicillin resistance) or pAQ1 (tetracycline resistance). Different strains were used to identify different types of mutations.
(§3) The test was carried out at five different concentrations of DPTM. […] Then 1 mL solution was diluted with distilled water by two fold. […] The negative control used in this experiment was 1 mL DMSO which was directly incorporated into 9 mL melted top agar.
(§4) The Ames test of DPTM was conducted as described in the literatures[42],[43] with some modifications. Briefly, 1 mL of strain was inoculated into 5 mL of nutrient broth, followed by incubating overnight at 37 °C. The mixture comprised respective strains, drug, negative and positive controls with the S9 for testing in the presence of metabolic activation system. For testing without S9, 1 × phosphate buffer saline (PBS, pH 7.4) replaced the S9 mix. The obtained mixtures were added into the tube, mixed well and incubated at 37 °C for 20 min. Then, the top agar was melted and 2 mL of this melted top agar was added to each tube and gently mixed. […] The results were expressed as the number of revertant colonies per plate. The experiments were performed in triplicate.

S. typhimurium TA1535 = settings: − S9
Source text: as §2, §3, §4

CYP2E1 [3] = target: T4, CYP2E1 (Homo sapiens, UniProt P05181); assay: Cocktail CYP inhibition in human liver microsomes, CYP2E1 (chlorzoxazone); type: in vitro ADME; settings: cocktail method, read-out: IC50 values, CYP2E1 in HLMs
T4 construct: containing 100 μL RLMs or HLMs; tissue Research Institute for Liver Diseases (Shanghai) Co., Ltd; host or cells: pooled human liver microsomes
Procedure: as §1

T4 sequence (P05181 whole entry): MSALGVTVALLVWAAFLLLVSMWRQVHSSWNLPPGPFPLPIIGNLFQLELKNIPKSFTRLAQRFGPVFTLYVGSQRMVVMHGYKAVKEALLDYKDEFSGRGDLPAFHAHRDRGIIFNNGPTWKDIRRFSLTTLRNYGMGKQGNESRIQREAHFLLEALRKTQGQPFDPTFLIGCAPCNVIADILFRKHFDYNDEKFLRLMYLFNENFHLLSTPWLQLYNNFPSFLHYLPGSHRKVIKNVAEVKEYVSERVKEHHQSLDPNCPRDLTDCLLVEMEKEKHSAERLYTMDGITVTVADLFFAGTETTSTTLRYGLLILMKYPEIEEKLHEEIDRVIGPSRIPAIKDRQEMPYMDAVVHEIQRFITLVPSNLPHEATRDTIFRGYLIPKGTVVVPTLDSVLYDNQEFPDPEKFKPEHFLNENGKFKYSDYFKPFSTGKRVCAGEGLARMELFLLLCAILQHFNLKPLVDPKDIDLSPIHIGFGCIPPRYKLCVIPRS
T3 sequence (P05182 whole entry): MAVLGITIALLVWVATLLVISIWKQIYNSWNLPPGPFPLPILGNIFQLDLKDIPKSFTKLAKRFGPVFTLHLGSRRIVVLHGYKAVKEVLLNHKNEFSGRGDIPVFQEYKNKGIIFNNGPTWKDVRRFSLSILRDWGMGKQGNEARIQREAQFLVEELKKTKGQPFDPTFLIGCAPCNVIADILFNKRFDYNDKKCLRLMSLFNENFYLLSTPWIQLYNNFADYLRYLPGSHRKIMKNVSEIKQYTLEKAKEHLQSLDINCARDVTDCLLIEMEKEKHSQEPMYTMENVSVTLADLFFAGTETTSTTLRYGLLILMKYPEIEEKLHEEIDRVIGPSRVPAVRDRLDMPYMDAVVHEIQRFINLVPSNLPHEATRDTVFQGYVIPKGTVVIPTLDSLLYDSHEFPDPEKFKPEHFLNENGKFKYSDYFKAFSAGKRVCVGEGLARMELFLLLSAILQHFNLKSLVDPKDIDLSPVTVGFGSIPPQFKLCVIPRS
T2 sequence (P11712 whole entry): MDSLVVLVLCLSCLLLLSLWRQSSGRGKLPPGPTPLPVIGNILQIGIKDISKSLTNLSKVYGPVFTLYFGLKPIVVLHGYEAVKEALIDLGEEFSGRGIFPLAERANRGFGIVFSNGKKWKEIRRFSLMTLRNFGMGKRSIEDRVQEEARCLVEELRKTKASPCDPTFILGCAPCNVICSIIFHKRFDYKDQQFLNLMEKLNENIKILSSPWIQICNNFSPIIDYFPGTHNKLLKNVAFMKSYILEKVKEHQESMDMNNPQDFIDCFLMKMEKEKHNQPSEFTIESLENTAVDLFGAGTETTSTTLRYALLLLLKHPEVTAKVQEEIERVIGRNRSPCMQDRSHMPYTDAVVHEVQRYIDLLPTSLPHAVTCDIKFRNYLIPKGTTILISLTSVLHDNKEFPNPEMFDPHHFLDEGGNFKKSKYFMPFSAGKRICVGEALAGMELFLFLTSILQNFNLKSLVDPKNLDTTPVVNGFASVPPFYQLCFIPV
T1 sequence (P10633 whole entry): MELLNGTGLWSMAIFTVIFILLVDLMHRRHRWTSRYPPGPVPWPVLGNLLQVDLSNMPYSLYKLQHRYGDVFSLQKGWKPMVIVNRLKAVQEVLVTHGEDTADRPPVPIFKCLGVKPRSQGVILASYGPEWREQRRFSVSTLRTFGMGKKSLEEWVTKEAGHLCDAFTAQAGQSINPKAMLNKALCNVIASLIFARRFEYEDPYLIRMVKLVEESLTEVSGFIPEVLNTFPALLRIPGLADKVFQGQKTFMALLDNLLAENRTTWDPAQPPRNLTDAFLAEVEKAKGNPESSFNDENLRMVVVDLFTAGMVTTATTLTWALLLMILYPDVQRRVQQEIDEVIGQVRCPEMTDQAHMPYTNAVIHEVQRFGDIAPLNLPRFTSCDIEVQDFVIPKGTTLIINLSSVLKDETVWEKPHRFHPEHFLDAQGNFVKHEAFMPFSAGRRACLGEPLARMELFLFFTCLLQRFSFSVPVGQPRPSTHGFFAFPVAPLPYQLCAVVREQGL

## C=CC1(C)CC(OC(=O)CSc2nc(N)cc(N)n2)C2(C)C(C)CCC3(CCC(=O)C32)C(C)C1O (centres unmarked) [DPTM, 14-O-[(4,6-Diaminopyrimidine-2-yl)thioacetyl] mutilin]
CYP2D1
  IC50: > 100 µM
[1]
  half-life (t1/2): 1.7 to 1.9 h
CYP2C9
  IC50: > 100 µM
PPARα mRNA
  PPARα mRNA expression versus control: significantly increase
CYP2E1 [2]
  IC50: 61 ± 8 µM
CYP3A
  IC50 at 15 min: 10 ± 2 µM
S. typhimurium TA100; dose 0.25 μmol/plate
  revertant colonies per plate, TA100: 171 ± 15 CFU
S. typhimurium TA100; dose 0.50 μmol/plate
  revertant colonies per plate, TA100: 162 ± 13 CFU
S. typhimurium TA100; dose 1.00 μmol/plate
  revertant colonies per plate, TA100: 165 ± 14 CFU
S. typhimurium TA100; dose 1.99 μmol/plate
  revertant colonies per plate, TA100: 170 ± 12 CFU
S. typhimurium TA100; dose 3.98 μmol/plate
  revertant colonies per plate, TA100: 173 ± 15 CFU
S. typhimurium TA1535; dose 0.25 μmol/plate
  revertant colonies per plate, TA1535: 22 ± 3 CFU
S. typhimurium TA1535; dose 0.50 μmol/plate
  revertant colonies per plate, TA1535: 21 ± 5 CFU
S. typhimurium TA1535; dose 1.00 μmol/plate
  revertant colonies per plate, TA1535: 26 ± 1 CFU
S. typhimurium TA1535; dose 1.99 μmol/plate
  revertant colonies per plate, TA1535: 22 ± 3 CFU
S. typhimurium TA1535; dose 3.98 μmol/plate
  revertant colonies per plate, TA1535: 22 ± 4 CFU
CYP2E1 [3]
  IC50: 67 ± 6 µM
